ChEMBL document CHEMBL1201861, “Genomics of Drug Sensitity in Cancer screening data, Wellcome Trust Sanger Institute”

Experiments:
COLO-792 = experiment: cells; type: functional, cell-based; settings: Homo sapiens
Description: SANGER: Inhibition of human COLO-792 cell growth in a cell viability assay.

COR-L105 = experiment: cells; type: functional, cell-based; settings: Homo sapiens
Description: SANGER: Inhibition of human COR-L105 cell growth in a cell viability assay.

Calu-3 = experiment: cells; type: functional, cell-based; settings: Homo sapiens;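 further: growth inhibition of human Calu-3 cells, determined with a cell viability assay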
Description: SANGER: Inhibition of human Calu-3 cell growth in a cell viability assay.

D-542MG = experiment: cells; type: functional, cell-based; settings: Homo sapiens
Description: SANGER: Inhibition of human D-542MG cell growth in a cell viability assay.

EB2 = experiment: cells; type: functional, cell-based; settings: Homo sapiens;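 further: growth inhibition of EB2 cells, read out with a cell viability assay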
Description: SANGER: Inhibition of human EB2 cell growth in a cell viability assay.

ESS-1 = experiment: cells; type: functional, cell-based; settings: Homo sapiens;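 further: growth inhibition of human ESS-1 cells, read out by a cell viability assay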
Description: SANGER: Inhibition of human ESS-1 cell growth in a cell viability assay.

GMS-10 = experiment: cells; type: functional, cell-based; settings: Homo sapiens;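 further: growth inhibition of GMS-10 cells, read out as cell viability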
Description: SANGER: Inhibition of human GMS-10 cell growth in a cell viability assay.

HCC1599 = experiment: cells; type: functional, cell-based; settings: Homo sapiens;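 further: growth inhibition of HCC1599 cells, read out in a cell viability assay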
Description: SANGER: Inhibition of human HCC1599 cell growth in a cell viability assay.

HCC1937 = experiment: cells; type: functional, cell-based; settings: Homo sapiens;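 further: growth inhibition measured with a cell viability read-out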
Description: SANGER: Inhibition of human HCC1937 cell growth in a cell viability assay.

HN = experiment: cells; type: functional, cell-based; settings: Homo sapiens
Description: SANGER: Inhibition of human HN cell growth in a cell viability assay.

HO-1-N-1 = experiment: cells; type: functional, cell-based; settings: Homo sapiens;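 further: growth inhibition of human HO-1-N-1 cells, read out with a cell viability assay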
Description: SANGER: Inhibition of human HO-1-N-1 cell growth in a cell viability assay.

HOS = experiment: cells; type: functional, cell-based; settings: Homo sapiens;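 further: growth inhibition of human HOS cells, read out with a cell viability assay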
Description: SANGER: Inhibition of human HOS cell growth in a cell viability assay.

HT-1376 = experiment: cells; type: functional, cell-based; settings: Homo sapiens
Description: SANGER: Inhibition of human HT-1376 cell growth in a cell viability assay.

HTC-C3 = experiment: cells; type: functional, cell-based; settings: Homo sapiens;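 further: inhibition of cell growth, read out with a cell viability assay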
Description: SANGER: Inhibition of human HTC-C3 cell growth in a cell viability assay.

KYSE-150 cell line = experiment: cells; type: functional, cell-based; settings: Homo sapiens;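 further: growth inhibition of human KYSE-150 cells, read out with a cell viability assay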
Description: SANGER: Inhibition of human KYSE-150 cell growth in a cell viability assay.

LK-2 = experiment: cells; type: functional, cell-based; settings: Homo sapiens;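 further: growth inhibition of LK-2 cells, read out with a viability assay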
Description: SANGER: Inhibition of human LK-2 cell growth in a cell viability assay.

LP-1 = experiment: cells; type: functional, cell-based; settings: Homo sapiens;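 further: growth inhibition of human LP-1 cells, with the read-out taken from a cell viability assay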
Description: SANGER: Inhibition of human LP-1 cell growth in a cell viability assay.

MDA-MB-231 = experiment: cells; type: functional, cell-based; settings: Homo sapiens
Description: SANGER: Inhibition of human MDA-MB-231 cell growth in a cell viability assay.

MDA-MB-415 = experiment: cells; type: functional, cell-based; settings: Homo sapiens
MFE-280 = experiment: cells; type: functional, cell-based; settings: Homo sapiens;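 further: growth inhibition of MFE-280 cells, determined with a cell viability readout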
Description: SANGER: Inhibition of human MFE-280 cell growth in a cell viability assay.

MONO-MAC-6 = experiment: cells; type: functional, cell-based; settings: Homo sapiens;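 further: cell viability assay measuring growth inhibition of human MONO-MAC-6 cells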
Description: SANGER: Inhibition of human MONO-MAC-6 cell growth in a cell viability assay.

MRK-nu-1 = experiment: cells; type: functional, cell-based; settings: Homo sapiens;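 further: cell viability assay measuring growth suppression of human MRK-nu-1 cells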
Description: SANGER: Inhibition of human MRK-nu-1 cell growth in a cell viability assay.

NB12 = experiment: cells; type: functional, cell-based; settings: Homo sapiens;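 further: growth inhibition of human NB12 cells, read out by a cell viability assay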
Description: SANGER: Inhibition of human NB12 cell growth in a cell viability assay.

NCI-H1694 = experiment: cells; type: functional, cell-based; settings: Homo sapiens;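 further: cell viability assay measuring inhibition of growth in human NCI-H1694 cells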
Description: SANGER: Inhibition of human NCI-H1694 cell growth in a cell viability assay.

NCI-H1963 = experiment: cells; type: functional, cell-based; settings: Homo sapiens;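 further: cell growth inhibition of the human line, determined with a cell viability assay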
Description: SANGER: Inhibition of human NCI-H1963 cell growth in a cell viability assay.

NCI-H2030 = experiment: cells; type: functional, cell-based; settings: Homo sapiens;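 further: growth inhibition of human NCI-H2030 cells, read out by a cell viability assay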
Description: SANGER: Inhibition of human NCI-H2030 cell growth in a cell viability assay.

NCI-H2170 = experiment: cells; type: functional, cell-based; settings: Homo sapiens;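 further: cell viability assay measuring growth inhibition of human NCI-H2170 cancer cells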
Description: SANGER: Inhibition of human NCI-H2170 cell growth in a cell viability assay.

NCI-H2228 = experiment: cells; type: functional, cell-based; settings: Homo sapiens;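 further: growth inhibition of human NCI-H2228 cells, read out by a cell viability assay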
Description: SANGER: Inhibition of human NCI-H2228 cell growth in a cell viability assay.

NCI-H345 = experiment: cells; type: functional, cell-based; settings: Homo sapiens;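 further: growth inhibition of NCI-H345 cells measured with a cell viability assay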
Description: SANGER: Inhibition of human NCI-H345 cell growth in a cell viability assay.

NCI-H522 = experiment: cells; type: functional, cell-based; settings: Homo sapiens;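 further: cell viability assay measuring growth inhibition of human NCI-H522 cells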
Description: SANGER: Inhibition of human NCI-H522 cell growth in a cell viability assay.

NCI-H596 = experiment: cells; type: functional, cell-based; settings: Homo sapiens;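 further: growth inhibition of NCI-H596 cells, read out with a cell viability assay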
Description: SANGER: Inhibition of human NCI-H596 cell growth in a cell viability assay.

NCI-H889 = experiment: cells; type: functional, cell-based; settings: Homo sapiens;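 further: cell growth inhibition of the cell line, read out with a viability assay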
Description: SANGER: Inhibition of human NCI-H889 cell growth in a cell viability assay.

NY = experiment: cells; type: functional, cell-based; settings: Homo sapiens
Description: SANGER: Inhibition of human NY cell growth in a cell viability assay.

OVCAR-5 = experiment: cells; type: functional, cell-based; settings: Homo sapiens;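 further: growth inhibition of human OVCAR-5 cells, read out with a cell viability assay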
Description: SANGER: Inhibition of human OVCAR-5 cell growth in a cell viability assay.

P31-FUJ = experiment: cells; type: functional, cell-based; settings: Homo sapiens;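 further: growth inhibition of P31-FUJ cells, read out with a viability assay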
Description: SANGER: Inhibition of human P31-FUJ cell growth in a cell viability assay.

PF-382 = experiment: cells; type: functional, cell-based; settings: Homo sapiens
Description: SANGER: Inhibition of human PF-382 cell growth in a cell viability assay.

RD = experiment: cells; type: functional, cell-based; settings: Homo sapiens
Description: SANGER: Inhibition of human RD cell growth in a cell viability assay.

RERF-LC-MS = experiment: cells; type: functional, cell-based; settings: Homo sapiens;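 further: growth inhibition of human RERF-LC-MS cells, read out by a cell viability assay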
Description: SANGER: Inhibition of human RERF-LC-MS cell growth in a cell viability assay.

RPMI-2650 = experiment: cells; type: functional, cell-based; settings: Homo sapiens
Description: SANGER: Inhibition of human RPMI-2650 cell growth in a cell viability assay.

SK-HEP1 = experiment: cells; type: functional, cell-based, SK-HEP-1; settings: Homo sapiens;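 further: cell viability readout used to quantify reduction in proliferation of human SK-HEP-1 cells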
Description: SANGER: Inhibition of human SK-HEP-1 cell growth in a cell viability assay.

SK-MEL-30 = experiment: cells; type: functional, cell-based; settings: Homo sapiens;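 further: growth inhibition of SK-MEL-30 cells, determined with a cell viability assay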
Description: SANGER: Inhibition of human SK-MEL-30 cell growth in a cell viability assay.

SK-OV-3 = experiment: cells; type: functional, cell-based; settings: Homo sapiens;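 further: growth inhibition of SK-OV-3 human cells, read out with a cell viability assay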
Description: SANGER: Inhibition of human SK-OV-3 cell growth in a cell viability assay.

SNU-449 = experiment: cells; type: functional, cell-based; settings: Homo sapiens
Description: SANGER: Inhibition of human SNU-449 cell growth in a cell viability assay.

SW1990 = experiment: cells; type: functional, cell-based; settings: Homo sapiens
Description: SANGER: Inhibition of human SW1990 cell growth in a cell viability assay.

SW626 = experiment: cells; type: functional, cell-based; settings: Homo sapiens;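 further: growth inhibition of SW626 cells, measured with a cell viability assay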
Description: SANGER: Inhibition of human SW626 cell growth in a cell viability assay.

SW756 = experiment: cells; type: functional, cell-based; settings: Homo sapiens;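 further: growth inhibition of human SW756 cells, read out with a cell viability assay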
Description: SANGER: Inhibition of human SW756 cell growth in a cell viability assay.

SiHa = experiment: cells; type: functional, cell-based; settings: Homo sapiens;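 further: Viability-based readout of growth inhibition in SiHa cells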
Description: SANGER: Inhibition of human SiHa cell growth in a cell viability assay.

TALL-1 = experiment: cells; type: functional, cell-based; settings: Homo sapiens;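 further: growth inhibition of cultured human TALL-1 cells, read out by a cell viability assay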
Description: SANGER: Inhibition of human TALL-1 cell growth in a cell viability assay.

23132-87 = experiment: cells; type: functional, cell-based; settings: Homo sapiens
Description: SANGER: Inhibition of human 23132-87 cell growth in a cell viability assay.

647-V = experiment: cells; type: functional, cell-based; settings: Homo sapiens;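 further: growth inhibition of 647-V cells, read out with a cell viability assay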
Description: SANGER: Inhibition of human 647-V cell growth in a cell viability assay.

769-P = experiment: cells; type: functional, cell-based; settings: Homo sapiens
Description: SANGER: Inhibition of human 769-P cell growth in a cell viability assay.

786-0 = experiment: cells; type: functional, cell-based; settings: Homo sapiens
Description: SANGER: Inhibition of human 786-0 cell growth in a cell viability assay.

8505C = experiment: cells; type: functional, cell-based; settings: Homo sapiens
Description: SANGER: Inhibition of human 8505C cell growth in a cell viability assay.

A 172 = experiment: cells; type: functional, cell-based; settings: Homo sapiens;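 further: growth inhibition of A172 cells, measured with a cell viability readout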
Description: SANGER: Inhibition of human A172 cell growth in a cell viability assay.

A-375 = experiment: cells; type: functional, cell-based; settings: Homo sapiens;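 further: growth inhibition of A375 cells, read out with a cell viability assay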
Description: SANGER: Inhibition of human A375 cell growth in a cell viability assay.

BFTC-905 = experiment: cells; type: functional, cell-based; settings: Homo sapiens
Description: SANGER: Inhibition of human BFTC-905 cell growth in a cell viability assay.

BHY = experiment: cells; type: functional, cell-based; settings: Homo sapiens;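 further: cell growth inhibition read out by a viability assay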
Description: SANGER: Inhibition of human BHY cell growth in a cell viability assay.

BL-41 = experiment: cells; type: functional, cell-based; settings: Homo sapiens;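 further: growth inhibition of human BL-41 cells, read out with a cell viability assay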
Description: SANGER: Inhibition of human BL-41 cell growth in a cell viability assay.

BL-70 = experiment: SANGER: Inhibition of human BL-70 cell growth in a cell viability assay.; type: functional, cell-based
CAL-12T = experiment: cells; type: functional, cell-based, Homo sapiens; settings: Homo sapiens, CAL-12T;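 further: growth inhibition of human CAL-12T cells, read out with a cell viability assay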
Description: SANGER: Inhibition of human CAL-12T cell growth in a cell viability assay.

CAL-27 = experiment: cells; type: functional, cell-based; settings: Homo sapiens;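 further: Viability-based readout, IC50 reflecting inhibition of CAL-27 cell growth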
Description: SANGER: Inhibition of human CAL-27 cell growth in a cell viability assay.

CAL-54 = experiment: cells; type: functional, cell-based; settings: Homo sapiens;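 further: growth inhibition of CAL-54 cells, read out by a viability measurement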
Description: SANGER: Inhibition of human CAL-54 cell growth in a cell viability assay.

UO-31 = experiment: cells; type: functional, cell-based; settings: Homo sapiens
Description: SANGER: Inhibition of human U031 cell growth in a cell viability assay.

VMRC-RCZ = experiment: cells; type: functional, cell-based; settings: Homo sapiens
Description: SANGER: Inhibition of human VMRC-RCZ cell growth in a cell viability assay.

YT = experiment: cells; type: functional, cell-based; settings: Homo sapiens
Description: SANGER: Inhibition of human YT cell growth in a cell viability assay.

C/C=C(/C)C(=O)O[C@H]1C(C)=C2[C@H]([C@@H]1OC(=O)CCCCCCC)[C@@](C)(OC(C)=O)C[C@H](OC(=O)CCC)[C@@]1(O)[C@H]2OC(=O)[C@@]1(C)O [THAPSIGARGIN] was tested, and the IC50 (COLO-792) was 59.6 nM, the IC50 (COR-L105) was 11.5 nM and the IC50 (Calu-3) was greater than 512 nM. The IC50 (D-542MG) was 6.93 nM, the IC50 (EB2) was 10.4 nM and the IC50 (ESS-1) was 7.58 nM. The IC50 (GMS-10) was greater than 512 nM, the IC50 (HCC1599) was 194 nM and the IC50 (HCC1937) was 0.927 nM. The IC50 (HN) was greater than 512 nM, the IC50 (HO-1-N-1) was greater than 512 nM and the IC50 (HOS) was 1.96 nM. It also gave an IC50 (HT-1376) of 2.75 nM, an IC50 (HTC-C3) of 21.7 nM and an IC50 (KYSE-150 cell line) of 22.2 nM. It also gave an IC50 (LK-2) of 1.46 nM, an IC50 (LP-1) of 4.08 nM and an IC50 (MDA-MB-231) of 0.557 nM. The IC50 (MDA-MB-415) was greater than 512 nM, the IC50 (MFE-280) was 36.6 nM and the IC50 (MONO-MAC-6) was 3.8 nM. The IC50 (MRK-nu-1) was 23.2 nM, the IC50 (NB12) was 13.2 nM and the IC50 (NCI-H1694) was 72.8 nM. The IC50 (NCI-H1963) was 66.2 nM, the IC50 (NCI-H2030) was 4.05 nM and the IC50 (NCI-H2170) was 14.4 nM. It also gave an IC50 (NCI-H2228) of 8 nM, an IC50 (NCI-H345) of 37 nM and an IC50 (NCI-H522) of 5.43 nM. It also gave an IC50 (NCI-H596) of 38.9 nM, an IC50 (NCI-H889) greater than 512 nM and an IC50 (NY) of less than 2 nM. The IC50 (OVCAR-5) was less than 2 nM, the IC50 (P31-FUJ) was 72.1 nM and the IC50 (PF-382) was 25.9 nM. It also gave an IC50 (RD) of 7.35 nM, an IC50 (RERF-LC-MS) of 1.37 nM and an IC50 (RPMI-2650) of 2.74 nM. The IC50 (SK-HEP1) was 7.8 nM, the IC50 (SK-MEL-30) was 3.24 nM and the IC50 (SK-OV-3) was 2.64 nM. It also gave an IC50 (SNU-449) of 4.18 nM, an IC50 (SW1990) of less than 2 nM and an IC50 (SW626) of 17.7 nM. The IC50 (SW756) was 12.7 nM, the IC50 (SiHa) was greater than 512 nM and the IC50 (TALL-1) was 21.7 nM. For the same compound, the IC50 (23132-87) was 31.4 nM, the IC50 (647-V) was 13.7 nM and the IC50 (769-P) was 32.3 nM. It also gave an IC50 (786-0) of less than 2 nM, an IC50 (8505C) of less than 2 nM and an IC50 (A 172) of less than 2 nM. The IC50 (A-375) was less than 2 nM, the IC50 (BFTC-905) was 0.662 nM and the IC50 (BHY) was 2.26 nM. For the same compound, the IC50 (BL-41) was less than 2 nM, the IC50 (BL-70) was 8.82 nM and the IC50 (CAL-12T) was less than 2 nM. The IC50 (CAL-27) was less than 2 nM, the IC50 (CAL-54) was greater than 512 nM and the IC50 (UO-31) was 57.7 nM. The IC50 (VMRC-RCZ) was 11.2 nM and the IC50 (YT) was 13.1 nM.
C/C(O)=C(\C#N)C(=O)Nc1cc(Br)ccc1Br was tested, and the IC50 (COLO-792) was greater than 16000 nM, the IC50 (COR-L105) was greater than 16000 nM and the IC50 (Calu-3) was greater than 16000 nM. The IC50 (D-542MG) was greater than 16000 nM, the IC50 (EB2) was greater than 16000 nM and the IC50 (ESS-1) was greater than 16000 nM. It also gave an IC50 (GMS-10) greater than 16000 nM, an IC50 (HCC1599) greater than 16000 nM and an IC50 (HCC1937) greater than 16000 nM. It also gave an IC50 (HN) greater than 16000 nM, an IC50 (HO-1-N-1) greater than 16000 nM and an IC50 (HOS) greater than 16000 nM. It also gave an IC50 (HT-1376) greater than 16000 nM, an IC50 (HTC-C3) greater than 16000 nM and an IC50 (KYSE-150 cell line) greater than 16000 nM. For the same compound, the IC50 (LK-2) was greater than 16000 nM, the IC50 (LP-1) was greater than 16000 nM and the IC50 (MDA-MB-231) was greater than 16000 nM. The IC50 (MDA-MB-415) was greater than 16000 nM, the IC50 (MFE-280) was greater than 16000 nM and the IC50 (MONO-MAC-6) was greater than 16000 nM. The IC50 (MRK-nu-1) was greater than 16000 nM, the IC50 (NB12) was greater than 16000 nM and the IC50 (NCI-H1694) was greater than 16000 nM. It also gave an IC50 (NCI-H1963) greater than 16000 nM, an IC50 (NCI-H2030) greater than 16000 nM and an IC50 (NCI-H2170) greater than 16000 nM. It also gave an IC50 (NCI-H2228) greater than 16000 nM, an IC50 (NCI-H345) greater than 16000 nM and an IC50 (NCI-H522) greater than 16000 nM. The IC50 (NCI-H596) was greater than 16000 nM, the IC50 (NCI-H889) was greater than 16000 nM and the IC50 (NY) was greater than 16000 nM. The IC50 (OVCAR-5) was greater than 16000 nM, the IC50 (P31-FUJ) was greater than 16000 nM and the IC50 (PF-382) was greater than 16000 nM. The IC50 (RD) was greater than 16000 nM, the IC50 (RERF-LC-MS) was greater than 16000 nM and the IC50 (RPMI-2650) was greater than 16000 nM. It also gave an IC50 (SK-HEP1) greater than 16000 nM, an IC50 (SK-MEL-30) greater than 16000 nM and an IC50 (SK-OV-3) greater than 16000 nM. The IC50 (SNU-449) was greater than 16000 nM, the IC50 (SW1990) was greater than 16000 nM and the IC50 (SW626) was greater than 16000 nM. For the same compound, the IC50 (SW756) was greater than 16000 nM, the IC50 (SiHa) was greater than 16000 nM and the IC50 (TALL-1) was greater than 16000 nM. The IC50 (23132-87) was greater than 16000 nM, the IC50 (647-V) was greater than 16000 nM and the IC50 (769-P) was greater than 16000 nM. It also gave an IC50 (786-0) greater than 16000 nM, an IC50 (8505C) greater than 16000 nM and an IC50 (A 172) greater than 16000 nM. It also gave an IC50 (A-375) greater than 16000 nM, an IC50 (BFTC-905) greater than 16000 nM and an IC50 (BHY) greater than 16000 nM. The IC50 (BL-41) was greater than 16000 nM, the IC50 (BL-70) was greater than 16000 nM and the IC50 (CAL-12T) was greater than 16000 nM. For the same compound, the IC50 (CAL-27) was greater than 16000 nM, the IC50 (CAL-54) was greater than 16000 nM and the IC50 (UO-31) was greater than 16000 nM. The IC50 (VMRC-RCZ) was greater than 16000 nM and the IC50 (YT) was greater than 16000 nM.
